Where a name gives a salt, the structure may show the parent alone.

The first assay addresses T1, PPARδ (Homo sapiens, UniProt Q03181).
T1 construct: fused to amino acids 147-441 of PPARδ downstream of CMV promoter; expressed in transfected cells; host or cells: HEK293 cells, transiently transfected with pFACMV-PPARδ using Fugene
T1 sequence (Q03181 147-441): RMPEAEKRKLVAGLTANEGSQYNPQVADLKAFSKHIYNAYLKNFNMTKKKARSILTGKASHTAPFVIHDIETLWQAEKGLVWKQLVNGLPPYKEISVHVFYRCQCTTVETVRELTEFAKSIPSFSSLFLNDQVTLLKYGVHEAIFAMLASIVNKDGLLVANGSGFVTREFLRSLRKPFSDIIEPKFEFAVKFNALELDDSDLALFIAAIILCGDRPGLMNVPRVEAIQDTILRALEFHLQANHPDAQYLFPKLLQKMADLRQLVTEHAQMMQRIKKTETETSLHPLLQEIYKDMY
Briefly: Transactivation assay (PPARδ GAL4 assay) in transiently transfected HEK293 cells. It counts as cell-based. The settings on record: luciferase reporter, Table 1. An outline of the steps: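 HEK293 cells transiently co-transfected with GAL4 DBD (aa 1-147)–PPARδ (aa 147-441) fusion and 5×GAL4-luciferase reporter, then exposed 24 h to compound (final 0-30 μM) in OptiMEM at 37° C. Luminescence read; activity as percent of GW501516 control, EC50 from sigmoidal dose-response fit.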
What is called EC50 is the midpoint of the concentration-response curve. A lower EC50 goes with greater potency. Compound `CCc1cc(C(=O)c2ccc(OC)cc2)c(NC(=O)CNCC(=O)O)s1` [Example 74, ({[5-Ethyl-3-(4-methoxy-benzoyl)-thiophen-2-ylcarbamoyl]-methyl}-amino)-acetic acid hydrochloride] came in with an EC50 of 1000 to 30000 nM.

Turning to `CCc1cc(C(=O)c2ccc(OC)nc2)c(NC(=O)CC2(CC(=O)O)CCCC2)s1` [Example 56, (1-{[5-Ethyl-3-(6-methoxy-pyridine-3-carbonyl)-thiophen-2-ylcarbamoyl]-methyl}-cyclopentyl)-acetic acid], the EC50 lay in the range of 1000 to 30000 nM. On the same count and under the same terms, the figure for `CCc1cc(C(=O)c2ccc(OC(F)(F)F)cc2)c(NC(=O)c2ccc(OCC(=O)O)cc2)s1` [Example 99, {4-[5-Ethyl-3-(4-trifluoromethoxy-benzoyl)-thiophen-2-ylcarbamoyl]-phenoxy}-acetic acid] is less than 100 nM; for `CCc1cc(C(=O)c2ccc3ccccc3c2)c(NC(=O)CSCC(=O)O)s1` [Example 47, {[5-Ethyl-3-(naphthalene-2-carbonyl)-thiophen-2-ylcarbamoyl]-methylsulfanyl}-acetic acid] it is 100 to 1000 nM. Same read-out and setting: the figure for `CCc1cc(C(=O)c2ccc(OC(F)(F)F)cc2)c(NC(=O)CN[C@H](C(=O)O)C(C)C)s1` [Example 79, (S)-2-({[5-Ethyl-3-(4-trifluoromethoxy-benzoyl)-thiophen-2-ylcarbamoyl]-methyl}-amino)-3-methyl-butyric acid] is less than 100 nM; for `COc1ccc(C(=O)c2cc(C(C)C)sc2NC(=O)CSCC(=O)O)cc1` [Example 62, {[5-Isopropyl-3-(4-methoxy-benzoyl)-thiophen-2-ylcarbamoyl]-methylsulfanyl}-acetic acid] it is 1000 to 30000 nM; for `CCc1cc(C(=O)c2ccc(F)cc2)c(NC(=O)CSC(C)(C)C(=O)O)s1` [Example 19, 2-{[5-Ethyl-3-(4-fluoro-benzoyl)-thiophen-2-ylcarbamoyl]-methylsulfanyl}-2-methyl-propionic acid] it is 100 to 1000 nM.

In turn, `CCc1cc(C(=O)c2ccc(C(C)(C)C)cc2)c(NC(=O)CSCC(=O)O)s1` [Example 50, {[3-(4-tert-Butyl-benzoyl)-5-ethyl-thiophen-2-ylcarbamoyl]-methylsulfanyl}-acetic acid] had an EC50 of 1000 to 30000 nM. For `CCc1cc(C(=O)c2ccc(Cl)cc2)c(NC(=O)CC2(CC(=O)O)CCCC2)s1` [Example 26, (1-{[3-(4-Chloro-benzoyl)-5-ethyl-thiophen-2-ylcarbamoyl]-methyl}-cyclopentyl)-acetic acid], the EC50 was 1000 to 30000 nM. For `CCc1cc(C(=O)c2ccc(OC(F)(F)F)cc2)c(NC(=O)CNC2(C(=O)O)CC2)s1` [Example 82, 1-({[5-Ethyl-3-(4-trifluoromethoxy-benzoyl)-thiophen-2-ylcarbamoyl]-methyl}-amino)-cyclopropanecarboxylic acid], the EC50 lay in the range of 1000 to 30000 nM. Same read-out and setting: for `CCc1cc(C(=O)c2ccc(OC)cc2)c(NC(=O)CN(C)CC(=O)O)s1` [Example 73, ({[5-Ethyl-3-(4-methoxy-benzoyl)-thiophen-2-ylcarbamoyl]-methyl}-methyl-amino)-acetic acid hydrochloride] the value was 1000 to 30000 nM; for `CCc1cc(C(=O)c2ccccc2)c(NC(=O)CC(C)(C)CC(=O)O)s1` [Example 16, 4-(3-Benzoyl-5-ethyl-thiophen-2-ylcarbamoyl)-3,3-dimethyl-butyric acid], 1000 to 30000 nM. Compound `CCc1cc(C(=O)c2cccc(-c3ccc(OC(F)(F)F)cc3)c2)c(NC(=O)CNC(C)(C)C(=O)O)s1` [Example 84, 2-({[5-Ethyl-3-(4′-trifluoromethoxy-biphenyl-3-carbonyl)-thiophen-2-ylcarbamoyl]-methyl}-amino)-2-methyl-propionic acid] came in with an EC50 of 100 to 1000 nM.

The compound `CCc1cc(C(=O)c2cccc(-c3ccc(OC(F)(F)F)cc3)c2)c(NC(=O)CSCC(=O)O)s1` [Example 44, {[5-Ethyl-3-(4′-trifluoromethoxy-biphenyl-3-carbonyl)-thiophen-2-ylcarbamoyl]-methylsulfanyl}-acetic acid] yielded an EC50 of 100 to 1000 nM. Still for that read-out and setting: the figure for `COc1ccc(C(=O)c2cc(Cl)sc2NC(=O)CSCC(=O)O)cn1` [Example 65, {[5-Chloro-3-(6-methoxy-pyridine-3-carbonyl)-thiophen-2-ylcarbamoyl]-methylsulfanyl}-acetic acid] is 1000 to 30000 nM. Same read-out and setting: the figure for `CCc1cc(C(=O)c2cccc(Br)c2)c(NC(=O)CSCC(=O)O)s1` [Example 34, {[3-(3-Bromo-benzoyl)-5-ethyl-thiophen-2-ylcarbamoyl]-methylsulfanyl}-acetic acid] is 100 to 1000 nM; for `CCc1cc(C(=O)c2ccc(C)c(C)c2)c(NC(=O)CSC(C)(C)C(=O)O)s1` [Example 54, 2-{[3-(3,4-Dimethyl-benzoyl)-5-ethyl-thiophen-2-ylcarbamoyl]-methylsulfanyl}-2-methyl-propionic acid] it is 100 to 1000 nM; for `CCc1cc(C(=O)c2ccc(OC)cc2)c(NC(=O)CCCSCC(=O)O)s1` [Example 71, {3-[5-Ethyl-3-(4-methoxy-benzoyl)-thiophen-2-ylcarbamoyl]-propylsulfanyl}-acetic acid] it is 100 to 1000 nM. On the same count and under the same terms, for `O=C(O)CSCC(=O)Nc1sc(C2CC2)cc1C(=O)c1ccc(F)cc1` [Example 64, {[5-Cyclopropyl-3-(4-fluoro-benzoyl)-thiophen-2-ylcarbamoyl]-methylsulfanyl}-acetic acid] the value was 1000 to 30000 nM.

The assay is the same for the next values; noted with them: luciferase reporter, Table 2.
`CCc1cc(C(=O)c2ccc(OC)cc2)c(NC(=O)CSC(C)C(=O)O)s1` (centres unmarked) [Example 111, 2-{[5-Ethyl-3-(4-methoxy-benzoyl)-thiophen-2-ylcarbamoyl]-methylsulfanyl}-propionic acid]: the EC50 is 100 to 1000 nM. Turning to `CCc1cc(C(=O)c2ccc(OC(F)(F)F)cc2)c(NC(=O)C(C)NCC(=O)O)s1` (centres unmarked) [Example 158, {1-[5-Ethyl-3-(4-trifluoromethoxy-benzoyl)-thiophen-2-ylcarbamoyl]-ethylamino}-acetic acid], the EC50 lay in the range of 100 to 1000 nM. In the case of `CCc1cc(C(=O)c2cc3ccccc3n2C)c(NC(=O)CSCC(=O)O)s1` [Example 149, {[5-Ethyl-3-(1-methyl-1H-indole-2-carbonyl)-thiophen-2-ylcarbamoyl]-methylsulfanyl}-acetic acid], the EC50 is 1000 to 30000 nM. For the compound `CCc1cc(C(=O)c2ccc(OC(F)(F)F)cc2)c(NC(=O)C2CCN(CC(=O)O)CC2)s1` [Example 177, {4-[5-Ethyl-3-(4-trifluoromethoxy-benzoyl)-thiophen-2-ylcarbamoyl]-piperidin-1-yl}-acetic acid], the EC50 was in the range of 1000 to 30000 nM.

With `CCCc1cc(C(=O)c2ccc(OC(F)(F)F)cc2)c(NC(=O)CSCC(=O)O)s1` [Example 132, {[5-Propyl-3-(4-trifluoromethoxy-benzoyl)-thiophen-2-ylcarbamoyl]-methylsulfanyl}-acetic acid], the 50% effective concentration (EC50) is less than 100 nM.

As to `CCc1cc(C(=O)c2ccc(OC(F)(F)F)cc2)c(NC(=O)CN2CCCC(C(=O)O)C2)s1` (centres unmarked) [Example 159, 1-{[5-Ethyl-3-(4-trifluoromethoxy-benzoyl)-thiophen-2-ylcarbamoyl]-methyl}-piperidine-3-carboxylic acid], the EC50 lay within 100 to 1000 nM. Still for that read-out and setting: for `CCc1cc(C(=O)c2ccc(OC(F)(F)F)cc2)c(NC(=O)CN2CCC[C@]2(C)C(=O)O)s1` [Example 172, (R)-1-{[5-Ethyl-3-(4-trifluoromethoxy-benzoyl)-thiophen-2-ylcarbamoyl]-methyl}-2-methyl-pyrrolidine-2-carboxylic acid] the value was 100 to 1000 nM; for `CCc1cc(C(=O)c2ccc(OC(F)(F)F)cc2)c(NC(=O)CCCSCC(=O)O)s1` [Example 105, {3-[5-Ethyl-3-(4-trifluoromethoxy-benzoyl)-thiophen-2-ylcarbamoyl]-propylsulfanyl}-acetic acid], 100 to 1000 nM; for `CCC(C)c1cc(C(=O)c2ccc(OC(F)(F)F)cc2)c(NC(=O)CSCC(=O)O)s1` (centres unmarked) [Example 134, {[5-sec-Butyl-3-(4-trifluoromethoxy-benzoyl)-thiophen-2-ylcarbamoyl]-methylsulfanyl}-acetic acid], 100 to 1000 nM. The same measure, in the same setting: for `CCc1cc(C(=O)c2cc3cc(OC(F)(F)F)ccc3n2C)c(NC(=O)CCC(C)(C)C(=O)O)s1` [Example 152, 4-[5-Ethyl-3-(1-methyl-5-trifluoromethoxy-H-indole-2-carbonyl)-thiophen-2-ylcarbamoyl]-2,2-dimethyl-butyric acid] the value was less than 100 nM.

`CCc1cc(C(=O)c2ccc(OC(F)(F)F)cc2)c(NC(=O)CN2CCCC2(C)C(=O)O)s1` (centres unmarked) [Example 173, 1-{[5-Ethyl-3-(4-trifluoromethoxy-benzoyl)-thiophen-2-ylcarbamoyl]-methyl}-2-methyl-pyrrolidine-2-carboxylic acid] returned a concentration giving a half-maximal response (EC50) of 100 to 1000 nM. Take `CCc1cc(C(=O)c2ccc(OC(F)(F)F)cc2)c(NC(=O)C(SCC(=O)O)c2ccccc2)s1` (centres unmarked) [Example 113, {[5-Ethyl-3-(4-trifluoromethoxy-benzoyl)-thiophen-2-ylcarbamoyl]-phenyl-methylsulfanyl}-acetic acid]: the EC50 was less than 100 nM. `CCc1cc(C(=O)c2ccc(OC(F)(F)F)cc2)c(NC(=O)C(SCC(=O)O)C(C)C)s1` (centres unmarked) [Example 114, {1-[5-Ethyl-3-(4-trifluoromethoxy-benzoyl)-thiophen-2-ylcarbamoyl]-2-methyl-propylsulfanyl}-acetic acid]: the EC50 was 100 to 1000 nM.

Values taken from US20100063065A1 (Inpharmatica Limited, priority 2005, published 2010).
